From patent publication US5716971A, “Pyridine derivatives, their production and use” (Takeda Chemical Industries, Ltd., priority 1993, dated 1998)
Like-named read-outs stand apart in the source and are kept apart here.

Key:
specimen of rat aorta [1] = assay: Vasorelaxation activity in a specimen of rat aorta: contraction caused by KCl; details: read-out: constriction inhibitory ratio
Procedure: (§1) Male Wister rats (10 to 13 week old were employed for the experiment. After dehematization, the aorta was excised and a ring specimen (5 mm length) was prepared. The specimen was suspended in a bath filled with oxygenated (95% O2 -5%CO2) Krebs solution (36° C.). The ring specimen was fixed at one end and the other end was connected to a transducer (Nippon Koden) for recording tension to determine the tension. After a stabilization period of one hour, TEA (30-45 mM) and BaCl2 (0.3 mM) were added to the bath to cause vasoconstriction. After the constriction had reached a steady state (after about 15 minutes), a test compound was added to the bath and its relaxation activity was measured.
Vasorelaxation activity in a specimen of rat aorta Effects on contraction caused by potassium chloride (KCl)
The same experiment was conducted as in Experiment 1, excepting the use of KCl ([…]) instead of TEA and BaCl2

specimen of rat aorta [2] = assay: Vasorelaxation activity in a specimen of rat aorta: contraction caused by TEA and BaCl2; details: TEA (30-45 mM) and BaCl2 (0.3 mM) contraction, read-out: constriction inhibitory ratio
Procedure: Vasorelaxation activity in a specimen of rat aorta Effects on contraction caused by tetraethylammonium chloride (TEA) and barium chloride (BaCl2)
as §1

anesthetized dogs = assay: Action of increasing coronary blood flow in anesthetized dogs (administration into coronary artery); assay type: in vivo, dog; details: injected into coronary artery, anesthetized Beagle dogs
Procedure: Action of increasing coronary blood flow in anesthetized dogs (Administration into coronary artery) Method: Beagle dogs (10 to 12 kg body weight) were anesthetized with pentobarbital and subjected to thoractomy under artificial respiration. A by-pass fitted with an electromagnetic flowmeter (Nippon Koden) was prepared between the left coronary artery and left carotid artery,and the volume of coronary blood flow was measured. […]
Maximal change rate against the value measured before the administration (% of basal flow) and the duration period [shown in terms of the time (T1/2) in which the activity is reduced to half] are shown in Table 67. As a result, it is apparent that the compounds of this invention show action of increasing coronary blood flow.

[3] = system: Spontaneously hypertensive rats; assay: Hypotensive activity in rats (Tail Cuff Method), oral; assay type: in vivo; details: Rattus norvegicus, 1 mg/kg, SHR
Procedure: Hypotensive activity in rats (Tail Cuff Method)
Spontaneously hypertensive rats (SHR, male, 20 to 23 week old) were warmed up to 36° C. The blood pressure at the tail aorta was measured by the tail cuff method. The blood pressure was measured three times, i.e. before oral administration of the test compound, two hours after the administration and five hours after the administration. The test compound was orally administered in the state of a suspension in gum arabic.
Maximal, hypotensive effect against the blood pressure before the administration is shown as % pre. in Table 66. As a result, it is apparent that the compounds of this invention show hypotensive activity.

[4] = after 2 hours, read-out: Maximal hypotensive effect against blood pressure before administration (% pre.), after 2 hours
[5] = after 5 hours, read-out: Maximal hypotensive effect against blood pressure before administration (% pre.), after 5 hours

| SMILES | inhibition at 1 µM (specimen of rat aorta [1]) [%] | inhibition at 3 µM (specimen of rat aorta [1]) [%] | inhibition at 1 µM (specimen of rat aorta [2]) [%] | inhibition at 3 µM (specimen of rat aorta [2]) [%] | inhibition at 10 µM (specimen of rat aorta [1]) [%] | inhibition at 10 µM (specimen of rat aorta [2]) [%] | duration (T1/2): time in which the activity is reduced to half (anesthetized dogs; 30 ug/day) [min] | inhibition in vivo at 1 mg/kg [3, 4] [%] | inhibition in vivo at 1 mg/kg [3, 5] [%] | duration (T1/2): time in which the activity is reduced to half (anesthetized dogs; 10 μg/dog administration) [min] |
| --- | --- | --- | --- | --- | --- | --- | --- | --- | --- | --- |
| CC(C)(C)O/N=C(/c1cc(C(F)(F)F)ccc1O)c1ncccc1O [Compound 4, (Z)-2-(5-trifluoromethyl-2-hydroxybenzoyl)-3-hydroxypyridine O-t-butyloxime] | -2 | 7 | 38 | 79 |  |  |  |  |  |  |
| CC(C)(C)O/N=C(/c1cc(F)ccc1O)c1ncccc1O [Compound 8, (Z)-2-(5-fluoro-2-hydroxybenzoyl)-3-hydroxypyridine O-t-butyloxime] | -9 | -2 | 16 | 93 |  |  |  |  |  |  |
| CC(C)(C)O/N=C(/c1cc(C#N)ccc1O)c1ncccc1O [Compound 9, (Z)-2-(5-cyano-2-hydroxybenzoyl)-3-hydroxypyridine O-t-butyloxime] |  | 0 |  | 22 | 10 | 82 |  |  |  |  |
| CCCCO/N=C(/c1cc(Br)ccc1O)c1ncccc1O [Compound 18] |  |  |  | 41 |  | 63 |  |  |  |  |
| CC(C)O/N=C(/c1cc(Br)ccc1O)c1ncccc1O [Compound 19, (Z)-2-(5-bromo-2-hydroxybenzoyl)-3-hydroxypyridine O-i-propyloxime] | -5 | 6 | 58 | 95 |  |  |  |  |  |  |
| Cc1ccc(O)c(/C(=N/OC(C)(C)C)c2ncccc2O)c1 [Compound 23, (Z)-2-(2-hydroxy-5-methylbenzoyl)-3-hydroxypyridine O-t-butyloxime] |  |  |  |  |  |  | 1.2 |  |  |  |
| CC(C)(C)O/N=C(/c1cc([N+](=O)[O-])ccc1O)c1ncccc1O [Compound 27, (Z)-2-(2-hydroxy-5-nitrobenzoyl)-3-hydroxypyridine O-t-butyloxime] |  |  |  |  |  |  | 2.1 |  |  |  |
| CC(C)(C)O/N=C(/c1ccc(F)cc1O)c1ncccc1O [Compound 30, (Z)-2-(4-fluoro-2-hydroxybenzoyl)-3-hydroxypyridine O-t-butyloxime] |  | 1 | 4 | 50 | 18 | 92 |  |  |  |  |
| CC(C)(C)O/N=C(/c1cc([N+](=O)[O-])ccc1O)c1c(O)ccc[n+]1[O-] [Compound 64, (Z)-2-(2-hydroxy-5-nitrobenzoyl)-3-hydroxypyridine N-oxide O-t-butyloxime] |  | 0 |  | 43 | 4 | 100 |  |  |  |  |
| CC(C)(C)O/N=C(/c1cc(Br)c(F)cc1O)c1ncccc1O [Compound 68, (Z)-2-(5-bromo-4-fluoro-2-hydroxybenzoyl)-3-hydroxypyridine O-t-butyloxime] | 4 |  | 92 |  |  |  |  |  |  |  |
| CC(C)(C)O/N=C(/c1cc(Br)c(F)cc1O)c1c(O)ccc[n+]1[O-] [Compound 69, (Z)-2-(5-bromo-4-fluoro-2-hydroxybenzoyl)-3-hydroxypyridine N-oxide O-t-butyloxime] | 0 |  | 100 |  |  |  |  | 26 | 19 |  |
| CC(C)(C)O/N=C(/c1cc(Br)ccc1O)c1cccc[n+]1[O-] [Compound 89, (Z)-2-(5-bromo-2-hydroxybenzoyl)pyridine N-oxide O-t-butyloxime] |  | 11 |  | 55 | 32 | 85 |  |  |  |  |
| CC(C)(C)O/N=C(/c1cc(F)c(Cl)cc1O)c1cccc[n+]1[O-] [Compound 103, (Z)-2-(4-chloro-5-fluoro-2-hydroxybenzoyl)pyridine N-oxide O-t-butyloxime] |  |  |  | 29 |  | 47 | 3.0 |  |  |  |
| Cc1cc(O)c(/C(=N/OC(C)(C)C)c2ncccc2O)cc1C [Compound 106, (Z)-2-(2-hydroxy-4,5-dimethylbenzoyl)-3-hydroxy pyridine O-t-butyloxime] | 0 | 5 | 2 | 56 | 39 | 100 |  |  |  |  |
| Cc1cc(/C(=N/OC(C)(C)C)c2ncccc2O)c(O)cc1F [Compound 111, (Z)-2-(4-fluoro-2-hydroxy-5-methylbenzoyl)-3-hydroxy pyridine O-t-butyloxime] | 0 | 0 | 81 | 92 |  |  |  |  |  |  |
| Cc1cc(O)c(/C(=N/OC(C)(C)C)c2ncccc2O)cc1F [Compound 114, (Z)-2-(5-fluoro-2-hydroxy-4-methylbenzoyl)-3-hydroxy pyridine O-t-butyloxime] | 0 | 0 | 65 | 89 |  |  |  |  |  |  |
| CC(C)(C)O/N=C(/c1cc(C=O)ccc1O)c1ncccc1O [Compound 117] | 4 | 12 | 10 | 52 | 32 | 99 |  |  |  |  |
| CC(C)(C)O/N=C(/c1cc(Br)c(Cl)cc1O)c1c(O)ccc[n+]1[O-] [Compound 119, (Z)-2-(5-bromo-4-chloro-2-hydroxybenzoyl)-3-hydroxypyridine N-oxide O-t-butyloxime] | 5 | 6 | 69 | 71 |  |  |  | 48 | 29 |  |
| COc1cc(O)c(/C(=N/OC(C)(C)C)c2c(O)ccc[n+]2[O-])cc1Br [Compound 121, (Z)-2-(5-bromo-2-hydroxy-4-methoxybenzoyl)-3-hydroxy pyridine N-oxide O-t-butyloxime] |  | 0 | 3 | 57 | 0 | 82 |  |  |  |  |
| CC(C)(C)O/N=C(/c1cc(Cl)c(Cl)cc1O)c1c(O)ccc[n+]1[O-] [Compound 122, (Z)-2-(4,5-dichloro-2-hydroxybenzoyl)-3-hydroxypyridine N-oxide O-t-butyloxime] | 0 |  | 100 |  |  |  |  | 30 | 24 |  |
| CC(C)(C)O/N=C(/c1cc(Cl)ccc1O)c1c(O)ccc[n+]1[O-] [Compound 123] |  | 0 |  | 52 | 0 | 91 |  | 37 | 12 |  |
| Cc1cc(O)c(/C(=N/OC(C)(C)C)c2c(O)ccc[n+]2[O-])cc1C [Compound 125, (Z)-2-(2-hydroxy-4,5-dimethyl-benzoyl)-3-hydroxy pyridine N-oxide O-t-butyloxime] |  | 1 |  | 25 | 8 | 78 |  |  |  |  |
| Cc1cc(O)c(/C(=N/OC(C)(C)C)c2c(O)ccc[n+]2[O-])cc1F [Compound 127, (Z)-2-(5-fluoro-2-hydroxy-4-methylbenzoyl)-3-hydroxy pyridine N-oxide O-t-butyloxime] |  | 0 | 8 | 85 | 0 | 100 |  |  |  |  |
| CC(C)(C)O/N=C(/c1cc(Cl)ccc1O)c1ncccc1Cl [Compound 147, (Z)-2-(5-chloro-2-hydroxybenzoyl)-3-chloro pyridine O-t-butyloxime] | 16 |  | 100 |  |  |  |  |  |  |  |
| CCOc1cc(O)c(/C(=N/OC(C)(C)C)c2ncccc2O)cc1Cl [Compound 160] | 18 |  | 100 |  |  |  |  |  |  |  |
| CC(C)(C)O/N=C(/c1cc(Br)c(F)cc1O)c1c(OC(=O)C(C)(C)C)ccc[n+]1[O-] [Compound 171, (Z)-2-(5-bromo-4-fluoro-2-hydroxybenzoyl)-3-pivaloyloxypyridine N-oxide O-t-butyloxime] |  |  |  |  |  |  |  |  |  | 23.4 |
